Reference: ChEMBL document CHEMBL1909046, “DrugMatrix in vitro pharmacology data”

How the values were obtained:
Cytochrome P450 2C19 = Cytochrome P450 2C19 (Homo sapiens, UniProt P33261)
Cytochrome P450 2C9 [1] = biological target: T1, Cytochrome P450 2C9 (Homo sapiens, UniProt P11712)
Cytochrome P450 1A2 [2] = biological target: T2, Cytochrome P450 1A2 (Homo sapiens, UniProt P05177); conditions: bti-tn-5b1-4
T2 sequence (P05177 whole entry): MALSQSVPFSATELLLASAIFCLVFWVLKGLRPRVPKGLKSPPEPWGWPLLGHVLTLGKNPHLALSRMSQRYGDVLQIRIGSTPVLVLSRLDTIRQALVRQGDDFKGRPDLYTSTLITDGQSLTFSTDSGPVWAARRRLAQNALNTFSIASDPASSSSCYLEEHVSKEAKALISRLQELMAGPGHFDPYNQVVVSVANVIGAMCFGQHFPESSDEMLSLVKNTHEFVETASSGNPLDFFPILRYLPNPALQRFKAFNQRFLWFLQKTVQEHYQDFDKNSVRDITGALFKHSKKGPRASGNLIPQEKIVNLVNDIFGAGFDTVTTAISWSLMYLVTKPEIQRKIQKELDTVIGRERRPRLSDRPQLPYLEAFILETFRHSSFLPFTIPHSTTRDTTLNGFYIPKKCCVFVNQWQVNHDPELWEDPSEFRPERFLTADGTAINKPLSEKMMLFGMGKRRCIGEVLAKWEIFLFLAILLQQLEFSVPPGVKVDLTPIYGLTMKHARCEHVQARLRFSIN

Glucocorticoid receptor = biological target: T3, Glucocorticoid receptor (Homo sapiens, UniProt P04150); experiment: biochemical
T3 sequence (P04150 whole entry): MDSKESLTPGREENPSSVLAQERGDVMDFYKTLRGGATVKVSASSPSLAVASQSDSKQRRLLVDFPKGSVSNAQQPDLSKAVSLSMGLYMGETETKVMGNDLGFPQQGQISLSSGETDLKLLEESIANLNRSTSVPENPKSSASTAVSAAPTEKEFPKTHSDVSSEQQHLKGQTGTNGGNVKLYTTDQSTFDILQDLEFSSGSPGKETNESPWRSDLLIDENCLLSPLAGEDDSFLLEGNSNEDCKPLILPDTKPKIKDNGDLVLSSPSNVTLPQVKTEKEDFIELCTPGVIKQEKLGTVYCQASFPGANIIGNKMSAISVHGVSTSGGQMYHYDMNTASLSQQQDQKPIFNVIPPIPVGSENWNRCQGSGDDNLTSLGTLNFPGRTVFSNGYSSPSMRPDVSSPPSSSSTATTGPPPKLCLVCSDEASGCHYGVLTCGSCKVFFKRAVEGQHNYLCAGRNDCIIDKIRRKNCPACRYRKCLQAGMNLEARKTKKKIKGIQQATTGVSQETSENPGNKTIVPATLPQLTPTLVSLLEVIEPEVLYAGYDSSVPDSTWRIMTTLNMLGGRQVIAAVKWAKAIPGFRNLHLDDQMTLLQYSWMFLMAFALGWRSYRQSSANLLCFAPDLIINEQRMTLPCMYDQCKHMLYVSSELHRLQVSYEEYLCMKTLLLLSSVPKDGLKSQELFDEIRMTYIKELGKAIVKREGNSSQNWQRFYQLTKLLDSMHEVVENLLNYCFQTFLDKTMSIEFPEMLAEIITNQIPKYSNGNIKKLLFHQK

Cytochrome P450 1A2 [3] = biological target: T2, Cytochrome P450 1A2
Cytochrome P450 2D6 = Cytochrome P450 2D6 (Homo sapiens, UniProt P10635)
Cytochrome P450 3A4 = Cytochrome P450 3A4 (Homo sapiens, UniProt P08684)
Androgen receptor = biological target: T4, Androgen receptor (Rattus norvegicus, UniProt P15207)
T4 sequence (P15207 whole entry): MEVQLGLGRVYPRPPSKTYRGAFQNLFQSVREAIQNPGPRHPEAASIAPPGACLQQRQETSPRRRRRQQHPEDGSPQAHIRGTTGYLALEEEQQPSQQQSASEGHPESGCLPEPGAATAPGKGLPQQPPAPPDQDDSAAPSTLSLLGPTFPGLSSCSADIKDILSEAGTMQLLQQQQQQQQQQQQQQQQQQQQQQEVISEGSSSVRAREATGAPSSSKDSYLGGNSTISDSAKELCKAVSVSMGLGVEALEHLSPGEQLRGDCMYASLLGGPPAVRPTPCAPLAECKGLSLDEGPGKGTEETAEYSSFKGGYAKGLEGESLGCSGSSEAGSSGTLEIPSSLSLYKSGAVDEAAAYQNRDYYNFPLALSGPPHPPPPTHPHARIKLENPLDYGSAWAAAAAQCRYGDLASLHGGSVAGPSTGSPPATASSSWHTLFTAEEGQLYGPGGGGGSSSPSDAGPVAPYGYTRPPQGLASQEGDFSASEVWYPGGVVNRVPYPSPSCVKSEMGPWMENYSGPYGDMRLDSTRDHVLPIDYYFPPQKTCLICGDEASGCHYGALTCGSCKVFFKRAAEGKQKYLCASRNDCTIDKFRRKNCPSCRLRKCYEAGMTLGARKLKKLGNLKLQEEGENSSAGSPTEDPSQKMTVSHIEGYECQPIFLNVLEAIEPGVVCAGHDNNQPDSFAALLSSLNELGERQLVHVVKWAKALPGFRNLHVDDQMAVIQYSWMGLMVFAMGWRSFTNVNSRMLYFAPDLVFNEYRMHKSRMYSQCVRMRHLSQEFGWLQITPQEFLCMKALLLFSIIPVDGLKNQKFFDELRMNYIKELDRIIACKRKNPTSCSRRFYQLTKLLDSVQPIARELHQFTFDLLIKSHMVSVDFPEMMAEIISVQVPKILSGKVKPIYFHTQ

Cytochrome P450 2C9 [4] = biological target: T1, Cytochrome P450 2C9; conditions: bti-tn-5b1-4
Also: in other assays of this panel Not Active means under 50% inhibition at 10 µM.

T1 sequence (P11712 whole entry): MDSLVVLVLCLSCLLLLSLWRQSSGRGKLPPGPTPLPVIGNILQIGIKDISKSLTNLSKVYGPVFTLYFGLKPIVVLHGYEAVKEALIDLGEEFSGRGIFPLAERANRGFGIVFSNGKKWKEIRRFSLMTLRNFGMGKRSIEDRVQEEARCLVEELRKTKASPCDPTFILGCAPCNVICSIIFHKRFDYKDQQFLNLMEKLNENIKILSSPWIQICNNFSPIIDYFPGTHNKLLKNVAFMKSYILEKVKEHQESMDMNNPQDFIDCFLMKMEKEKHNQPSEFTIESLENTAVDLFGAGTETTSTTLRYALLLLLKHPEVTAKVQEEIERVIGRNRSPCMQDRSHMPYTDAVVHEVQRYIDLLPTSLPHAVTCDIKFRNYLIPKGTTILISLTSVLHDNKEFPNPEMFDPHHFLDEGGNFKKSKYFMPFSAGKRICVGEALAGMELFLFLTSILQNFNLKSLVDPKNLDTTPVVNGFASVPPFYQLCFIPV
Chain of Cytochrome P450 2C19 (P33261 whole entry): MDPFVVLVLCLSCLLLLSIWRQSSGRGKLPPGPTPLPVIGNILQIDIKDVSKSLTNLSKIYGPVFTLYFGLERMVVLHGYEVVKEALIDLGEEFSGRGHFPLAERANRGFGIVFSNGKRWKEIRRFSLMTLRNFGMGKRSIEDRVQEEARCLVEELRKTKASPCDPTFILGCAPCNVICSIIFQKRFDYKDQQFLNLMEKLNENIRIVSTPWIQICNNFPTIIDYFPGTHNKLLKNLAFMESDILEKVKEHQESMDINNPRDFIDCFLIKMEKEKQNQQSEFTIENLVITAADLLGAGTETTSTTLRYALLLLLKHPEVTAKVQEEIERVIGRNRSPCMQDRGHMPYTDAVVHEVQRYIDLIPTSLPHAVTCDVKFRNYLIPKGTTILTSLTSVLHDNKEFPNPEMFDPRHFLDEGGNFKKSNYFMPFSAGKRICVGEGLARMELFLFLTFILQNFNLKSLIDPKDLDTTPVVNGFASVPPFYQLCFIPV
Chain of Cytochrome P450 2D6 (P10635 whole entry): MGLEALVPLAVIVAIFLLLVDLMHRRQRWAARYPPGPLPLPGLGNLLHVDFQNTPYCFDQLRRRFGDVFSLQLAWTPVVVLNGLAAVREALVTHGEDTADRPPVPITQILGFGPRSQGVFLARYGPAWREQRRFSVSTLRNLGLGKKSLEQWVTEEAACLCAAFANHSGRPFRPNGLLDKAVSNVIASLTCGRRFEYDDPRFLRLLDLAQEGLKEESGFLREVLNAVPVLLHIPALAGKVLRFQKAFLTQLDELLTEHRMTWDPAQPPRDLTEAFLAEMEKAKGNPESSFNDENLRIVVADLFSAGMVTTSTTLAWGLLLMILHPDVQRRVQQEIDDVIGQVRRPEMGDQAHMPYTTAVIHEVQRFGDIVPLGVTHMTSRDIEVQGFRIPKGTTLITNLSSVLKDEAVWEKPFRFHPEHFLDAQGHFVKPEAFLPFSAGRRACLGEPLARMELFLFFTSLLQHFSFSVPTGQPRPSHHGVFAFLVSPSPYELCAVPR
Chain of Cytochrome P450 3A4 (P08684 whole entry): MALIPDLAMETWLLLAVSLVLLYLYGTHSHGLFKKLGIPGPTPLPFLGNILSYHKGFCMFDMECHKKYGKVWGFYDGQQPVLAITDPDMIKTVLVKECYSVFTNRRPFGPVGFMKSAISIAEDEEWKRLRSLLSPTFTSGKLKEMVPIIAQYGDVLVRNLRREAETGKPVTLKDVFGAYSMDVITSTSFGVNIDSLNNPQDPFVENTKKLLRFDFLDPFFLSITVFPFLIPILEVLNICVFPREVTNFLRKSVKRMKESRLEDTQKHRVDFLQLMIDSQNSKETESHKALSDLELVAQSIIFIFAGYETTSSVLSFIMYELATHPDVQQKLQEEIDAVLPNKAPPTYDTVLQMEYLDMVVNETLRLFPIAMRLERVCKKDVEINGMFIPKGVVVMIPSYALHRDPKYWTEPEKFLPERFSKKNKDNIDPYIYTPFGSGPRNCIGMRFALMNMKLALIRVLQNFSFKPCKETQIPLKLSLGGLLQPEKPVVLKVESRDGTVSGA

Clc1ccccc1C(c1ccccc1)(c1ccccc1)n1ccnc1 [CLOTRIMAZOLE]
IC50 (Cytochrome P450 2C19): 16 nM
IC50 (Cytochrome P450 2C9 [1]): 16 nM
IC50 (Cytochrome P450 1A2 [2]): Not Active
Ki (Cytochrome P450 1A2 [2]): Not Active
IC50 (Glucocorticoid receptor): 3.26 µM
Ki (Glucocorticoid receptor): 1480 nM

NNc1ccccc1 [PHENYLHYDRAZINE]
IC50 (Cytochrome P450 1A2 [3]): 8 µM
IC50 (Cytochrome P450 2C19): 5000 nM
IC50 (Cytochrome P450 2C9 [1]): 6000 nM
IC50 (Cytochrome P450 2D6): 3 µM

C[C@]12Cc3c[nH]nc3C[C@@H]1CC[C@@H]1[C@@H]2CC[C@@]2(C)[C@H]1CC[C@]2(C)O [STANOZOLOL]
IC50 (Cytochrome P450 2C19): 48 nM
IC50 (Cytochrome P450 2C9 [1]): 1130 nM
IC50 (Cytochrome P450 2D6): 9.27 µM
IC50 (Cytochrome P450 1A2 [2]): Not Active
Ki (Cytochrome P450 1A2 [2]): Not Active

C=CC[C@@H]1/C=C(\C)C[C@H](C)C[C@H](OC)[C@H]2O[C@@](O)(C(=O)C(=O)N3CCCC[C@H]3C(=O)O[C@H](/C(C)=C/[C@@H]3CC[C@@H](O)[C@H](OC)C3)[C@H](C)[C@@H](O)CC1=O)[C@H](C)C[C@@H]2OC [TACROLIMUS ANHYDROUS]
IC50 (Cytochrome P450 3A4): 1000 nM
IC50 (Androgen receptor): Not Active
IC50 (Cytochrome P450 1A2 [2]): Not Active
Ki (Cytochrome P450 1A2 [2]): Not Active
IC50 (Cytochrome P450 2C9 [4]): Not Active
Ki (Cytochrome P450 2C9 [4]): Not Active
